Measurements from PubChem BioAssay (NCI).
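Tested at 5 concentrations; 48 h exposure; 96-well plates; endpoints linearly interpolated, else capped at highest concentration. TGI marks complete inhibition of growth.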

Tests used:
Test in all cases: growth of human tumour cells (NCI), 48 h
UO-31 renal = test system: UO-31 renal
SW-620 colon = test system: SW-620 colon
A549 NSCLC = test system: A549 NSCLC
HCT-15 colon = test system: HCT-15 colon
SNB-78 CNS = test system: SNB-78 CNS
NCI-H460 lung = test system: NCI-H460 lung
OVCAR-8 ovarian = test system: OVCAR-8 ovarian
LXFL 529 NSCLC = test system: LXFL 529 NSCLC
SF-295 CNS = test system: SF-295 CNS
SF-268 CNS = test system: SF-268 CNS
K-562 leukemia = test system: K-562 leukemia
XF 498 CNS = test system: XF 498 CNS
HT29 colon = test system: HT29 colon
M19-MEL melanoma = test system: M19-MEL melanoma
RXF 393 renal = test system: RXF 393 renal
OVCAR-3 ovarian = test system: OVCAR-3 ovarian
DMS 114 small cell lung = test system: DMS 114 small cell lung
HOP-18 NSCLC = test system: HOP-18 NSCLC
SK-OV-3 ovarian = test system: SK-OV-3 ovarian
OVCAR-5 ovarian = test system: OVCAR-5 ovarian
ACHN renal = test system: ACHN renal
NCI-H226 lung = test system: NCI-H226 lung
CAKI-1 renal = test system: CAKI-1 renal
CCRF-CEM leukemia = test system: CCRF-CEM leukemia
SK-MEL-28 melanoma = test system: SK-MEL-28 melanoma
EKVX NSCLC = test system: EKVX NSCLC
DLD-1 colon = test system: DLD-1 colon
SK-MEL-2 melanoma = test system: SK-MEL-2 melanoma
SR leukemia = test system: SR leukemia
SNB-75 CNS = test system: SNB-75 CNS
SF-539 CNS = test system: SF-539 CNS
COLO 205 colon = test system: COLO 205 colon
SN12C renal = test system: SN12C renal
U251 CNS = test system: U251 CNS
RPMI-8226 leukemia = test system: RPMI-8226 leukemia
HCC-2998 colon = test system: HCC-2998 colon
SK-MEL-5 melanoma = test system: SK-MEL-5 melanoma
KM12 colon = test system: KM12 colon
UACC-257 melanoma = test system: UACC-257 melanoma
LOX IMVI melanoma = test system: LOX IMVI melanoma
OVCAR-4 ovarian = test system: OVCAR-4 ovarian
MOLT-4 leukemia = test system: MOLT-4 leukemia
HCT-116 colon = test system: HCT-116 colon
IGROV1 ovarian = test system: IGROV1 ovarian
HOP-92 NSCLC = test system: HOP-92 NSCLC
A498 renal = test system: A498 renal
SNB-19 CNS = test system: SNB-19 CNS
TK-10 renal = test system: TK-10 renal
MALME-3M melanoma = test system: MALME-3M melanoma
UACC-62 melanoma = test system: UACC-62 melanoma
HL-60(TB) leukemia = test system: HL-60(TB) leukemia
NCI-H522 lung = test system: NCI-H522 lung
M14 melanoma = test system: M14 melanoma
786-0 renal = test system: 786-0 renal
DMS 273 small cell lung = test system: DMS 273 small cell lung
KM20L2 colon = test system: KM20L2 colon
HOP-62 NSCLC = test system: HOP-62 NSCLC
NCI-H23 lung = test system: NCI-H23 lung

## CN(C)CC1CC/C(=C\c2ccc(Cl)c(Cl)c2)C1=O (stereo not drawn)
UO-31 renal
  TGI: > 55.9 µM
SW-620 colon
  TGI: > 51.6 µM
A549 NSCLC
  TGI: > 100 µM
HCT-15 colon
  TGI: > 43.1 µM
SNB-78 CNS
  TGI: > 78.8 µM
NCI-H460 lung
  TGI: 36.1 µM
OVCAR-8 ovarian
  TGI: > 58.9 µM
LXFL 529 NSCLC
  TGI: 27 µM
SF-295 CNS
  TGI: > 78.4 µM
SF-268 CNS
  TGI: > 74.3 µM
K-562 leukemia
  TGI: > 27.1 µM
XF 498 CNS
  TGI: > 65.4 µM
HT29 colon
  TGI: 54.4 µM
M19-MEL melanoma
  TGI: > 51.2 µM
RXF 393 renal
  TGI: > 61.8 µM
OVCAR-3 ovarian
  TGI: > 61.5 µM
DMS 114 small cell lung
  TGI: > 72.7 µM
HOP-18 NSCLC
  TGI: > 100 µM
SK-OV-3 ovarian
  TGI: > 100 µM
OVCAR-5 ovarian
  TGI: > 86.8 µM
ACHN renal
  TGI: > 62.5 µM
NCI-H226 lung
  TGI: > 100 µM
CAKI-1 renal
  TGI: 56.1 µM
CCRF-CEM leukemia
  TGI: 22.7 µM
SK-MEL-28 melanoma
  TGI: > 84.8 µM
EKVX NSCLC
  TGI: > 58.7 µM
DLD-1 colon
  TGI: 50.1 µM
SK-MEL-2 melanoma
  TGI: > 62.9 µM
SR leukemia
  TGI: 6.91 µM
SNB-75 CNS
  TGI: > 66.6 µM
SF-539 CNS
  TGI: > 55.7 µM
COLO 205 colon
  TGI: > 51.8 µM
SN12C renal
  TGI: > 55.8 µM
U251 CNS
  TGI: > 56.5 µM
RPMI-8226 leukemia
  TGI: 8.92 µM
HCC-2998 colon
  TGI: > 58.5 µM
SK-MEL-5 melanoma
  TGI: > 72.9 µM
KM12 colon
  TGI: 35.7 µM
UACC-257 melanoma
  TGI: > 60.9 µM
LOX IMVI melanoma
  TGI: 18.4 µM
OVCAR-4 ovarian
  TGI: 58.2 µM
MOLT-4 leukemia
  TGI: 19 µM
HCT-116 colon
  TGI: > 61.7 µM
IGROV1 ovarian
  TGI: > 69.6 µM
HOP-92 NSCLC
  TGI: 48.2 µM
A498 renal
  TGI: 73.6 µM
SNB-19 CNS
  TGI: > 56.1 µM
TK-10 renal
  TGI: 19.9 µM
MALME-3M melanoma
  TGI: > 100 µM
UACC-62 melanoma
  TGI: 31.5 µM
HL-60(TB) leukemia
  TGI: 4.68 µM
NCI-H522 lung
  TGI: 17.7 µM
M14 melanoma
  TGI: 48.5 µM
786-0 renal
  TGI: 26.7 µM
DMS 273 small cell lung
  TGI: > 51.9 µM
KM20L2 colon
  TGI: > 50.2 µM
HOP-62 NSCLC
  TGI: > 95.1 µM
NCI-H23 lung
  TGI: 47.3 µM
